Measured values reported in patent US20150105252A1, “SUBSTITUTED PYRAZOLES AS HERBICIDES” (E I DU PONT DE NEMOURS AND COMPANY, priority 2013, published 2015).

How the values were obtained:
barnyardgrass [1] = assay: Test A preemergence; format: in vivo, Echinochloa crus-galli; conditions: preemergence
How it was run: (§1)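 Greenhouse test in loam soil/sand blend; compounds formulated in non-phytotoxic solvent with surfactant, applied as preemergence directed soil spray or postemergence to plants 2–10 cm tall at one- to two-leaf stage. Injury rated visually versus untreated controls after approximately 10 days on a 0 (no effect) to 100 (complete control) scale.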

barnyardgrass [2] = assay: Test B flood; format: in vivo, Echinochloa crus-galli; conditions: 250 g ai/ha, visual rating on 0 to 100 scale (0 no effect, 100 complete control), 13 to 15 days
How it was run: (§2)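 2-leaf plants; pots flooded 3 cm over soil; compound added to paddy water, depth kept constant. Greenhouse 13–15 d. Visual rating vs controls, 0–100 scale (100 = complete control); dash = no result.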

pigweed [3] = assay: Test A preemergence; format: in vivo, Amaranthus retroflexus; conditions: preemergence
How it was run: as §1

pigweed [4] = assay: Test C preemergence; format: in vivo, Amaranthus retroflexus; conditions: for Plant response rating (scale of 0 to 100), Pigweed: Preemergence, 250 g ai/ha; for Pigweed plant response rating / Plant response rating, Pigweed: preemergence; for Plant response rating, Pigweed: scale 0 to 100, 0 = no effect, 100 = complete control
How it was run: (§3)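 Scores of 0 (no effect) to 100 (complete control) were assigned by eye after 13–15 days, comparing treated pots with controls. Soil-applied (preemergence) treatments went onto seeds in loam and sand; foliar (postemergence) treatments onto 1- to 4-leaf plants in peat medium.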

johnsongrass = assay: Test C preemergence; format: in vivo, Sorghum halepense; conditions: for Plant response rating (scale of 0 to 100), Johnsongrass: Preemergence, 250 g ai/ha; for Johnsongrass plant response rating / Plant response rating, Johnsongrass: preemergence; for Plant response rating, Johnsongrass: scale 0 to 100, 0 = no effect, 100 = complete control
From the text: (§4) Seeds of plant species selected from blackgrass (Alopecurus myosuroides), ryegrass, Italian (Italian ryegrass, Lolium multiflorum), wheat (winter wheat, Triticum aestivum), galium (catchweed bedstraw, Galium aparine), corn (Zea mays), crabgrass, large (large crabgrass, Digitaria sanguinalis), foxtail, giant (giant foxtail, Setaria faberii), johnsongrass (Sorghum halepense), lambsquarters (Chenopodium album), morningglory (Ipomoea coccinea), nutsedge, yellow (yellow nutsedge, Cyperus esculentus), pigweed (redroot pigweed, Amaranthus retroflexus), ragweed (common ragweed, Ambrosia elation), soybean (Glycine max), barnyardgrass (Echinochloa crus-galli), oilseed rape (Brassica napus), waterhemp (common waterhemp, Amaranthus rudis), oat, wild (wild oat, Avena fatua), kochia (Kochia scoparia), Surinam grass (Brachiaria decumbens), foxtail, green (green foxtail, Setaria viridis), goosegrass (Eleusine indica), bromegrass, downy (downy bromegrass, Bromus tectorum), nightshade (eastern black nightshade, Solanum ptycanthum), cocklebur (common cocklebur, Xanthium strumarium), cupgrass, woolly (woolly cupgrass, Eriochloa villosa), bermudagrass (Cynodon dactylon), sunflower, (common oilseed sunflower, Helianthus annuus), Russian thistle (Salsola kali), and velvetleaf (Abutilon theophrasti) were planted into a blend of loam soil and sand and treated preemergence with test chemicals formulated in a non-phytotoxic solvent mixture which included a surfactant.
(§5) At the same time, plants selected from these crop and weed species and also chickweed (common chickweed, Stellaria media), canarygrass (littleseed canarygrass, Phalaris minor), and deadnettle (henbit deadnettle, Lamium amplexicaule), were planted in pots containing Redi-Earth® planting medium (Scotts Company, 14111 Scottslawn Road, Marysville, Ohio 43041) comprising spaghnum peat moss, vermiculite, wetting agent and starter nutrients and treated with postemergence applications of test chemicals formulated in the same manner. Plants ranged in height from 2 to 18 cm (1- to 4-leaf stage) for postemergence treatments. Treated plants and controls were maintained in a greenhouse for 13 to 15 days, after which time all species were compared to controls and visually evaluated. Plant response ratings, summarized in Table C, are based on a scale of 0 to 100 where 0 is no effect and 100 is complete control. A dash (-) response means no test result.

crabgrass, large = assay: Test C preemergence; format: in vivo, Digitaria sanguinalis; conditions: for Plant response rating (scale of 0 to 100), Crabgrass, Large: Preemergence, 250 g ai/ha; for Crabgrass, Large plant response rating / Plant response rating, Crabgrass, Large: preemergence; for Plant response rating, Crabgrass, Large: scale 0 to 100, 0 = no effect, 100 = complete control
How it was run: as §3

rice = assay: Test B flood; format: in vivo, Oryza sativa; conditions: 250 g ai/ha, visual rating on 0 to 100 scale (0 no effect, 100 complete control), 13 to 15 days
How it was run: as §2

ryegrass, Italian = assay: Test C preemergence; format: in vivo, Lolium multiflorum; conditions: for Plant response rating (scale of 0 to 100), Ryegrass, Italian: Preemergence, 250 g ai/ha; for Ryegrass, Italian plant response rating / Plant response rating, Ryegrass, Italian: preemergence; for Plant response rating, Ryegrass, Italian: scale 0 to 100, 0 = no effect, 100 = complete control
From the text: as §4, §5

corn = assay: Test A postemergence; format: in vivo, Zea mays
How it was run: as §1

barnyardgrass [5] = assay: Test A postemergence; format: in vivo, Echinochloa crus-galli
How it was run: as §1

velvetleaf = assay: Test A postemergence; format: in vivo, Abutilon theophrasti
How it was run: as §1

foxtail, giant = assay: Test A postemergence; format: in vivo, Setaria faberii
How it was run: as §1

morningglory = assay: Test C preemergence; format: in vivo, Ipomoea coccinea; conditions: for Plant response rating (scale of 0 to 100), Morningglory: Preemergence, 250 g ai/ha; for Morningglory plant response rating / Plant response rating, Morningglory: preemergence; for Plant response rating, Morningglory: scale 0 to 100, 0 = no effect, 100 = complete control
How it was run: as §3

blackgrass = assay: Test C preemergence; format: in vivo, Alopecurus myosuroides; conditions: for Plant response rating (scale of 0 to 100), Blackgrass: Preemergence, 250 g ai/ha; for Blackgrass plant response rating / Plant response rating, Blackgrass: preemergence; for Plant response rating, Blackgrass: scale 0 to 100, 0 = no effect, 100 = complete control
How it was run: as §3

[6] = 125 g ai/ha, visual injury, 0 to 100 scale, approx. 10 days
[7] = 500 g ai/ha, visual injury after approx. 10 days, 0 to 100 scale (0 no effect, 100 complete control)
[8] = 31 g ai/ha, visual rating, scale 0 to 100 (0 no effect, 100 complete control), 13 to 15 days
[9] = 125 g ai/ha, scale 0 to 100, 0 is no effect, 100 is complete control
[10] = Postemergence, 500 g ai/ha, visual rating after approx. 10 days, 0 to 100 scale (0 no effect, 100 complete control)
[11] = postemergence, 125 g ai/ha, about 10 days, visual rating on 0 to 100 scale (0 no effect, 100 complete control)
[12] = 62 g ai/ha, scale 0 to 100 (0 no effect, 100 complete control), 13 to 15 days
[13] = Postemergence, 500 g ai/ha, 0 to 100 scale (0 no effect, 100 complete control)

Structure (SMILES)	Barnyardgrass plant response rating (barnyardgrass [1]; [6])	Barnyardgrass plant response rating (barnyardgrass [1]; [7])	Plant response rating, Barnyardgrass (barnyardgrass [2])	Pigweed plant response rating (pigweed [3]; [6])	Pigweed plant response rating (pigweed [3]; [7])	Plant response rating (scale of 0 to 100), Pigweed (pigweed [4])	Pigweed plant response rating (pigweed [4]; [8])	Plant response rating (scale of 0 to 100), Johnsongrass (johnsongrass)	Johnsongrass plant response rating (johnsongrass; [8])	Plant response rating (scale of 0 to 100), Crabgrass, Large (crabgrass, large)	Crabgrass, Large plant response rating (crabgrass, large; [8])	Plant response rating, Rice (rice)	Plant response rating (scale of 0 to 100), Ryegrass, Italian (ryegrass, Italian)	Ryegrass, Italian plant response rating (ryegrass, Italian; [8])	Corn plant response rating (corn; [11])	Barnyardgrass plant response rating (barnyardgrass [5]; [11])	Foxtail, Giant plant response rating (foxtail, giant; [11])	Plant response rating (scale of 0 to 100), Morningglory (morningglory)	Morningglory plant response rating (morningglory; [8])	Plant response rating (scale of 0 to 100), Blackgrass (blackgrass)	other results
CCc1cc(C(=O)NC2CC2)nn1Cc1ccnc(OC(F)F)c1 [Compound 98]	90	100	0	100	100	100	100	100	65	100	98	0	100	30	80	90	90	100	45	100	Plant response rating, Pigweed (pigweed [4]; 62 g ai/ha, 13 to 15 days): 100; Pigweed plant response rating (pigweed [4]; [9]): 100; Plant response rating, Johnsongrass (johnsongrass; 62 g ai/ha, 13 to 15 days): 70; Johnsongrass plant response rating (johnsongrass; [9]): 100; Plant response rating, Crabgrass, Large (crabgrass, large; 62 g ai/ha, 13 to 15 days): 100; Crabgrass, Large plant response rating (crabgrass, large; [9]): 100; Plant response rating, Ryegrass, Italian (ryegrass, Italian; 62 g ai/ha, 13 to 15 days): 80; Ryegrass, Italian plant response rating (ryegrass, Italian; [9]): 95; Corn plant response rating (corn; [10]): 90; Barnyardgrass plant response rating (barnyardgrass [5]; [10]): 90; Velvetleaf plant response rating (velvetleaf; [10]): 100; Velvetleaf plant response rating (velvetleaf; [11]): 70; Foxtail, Giant plant response rating (foxtail, giant; [10]): 90; Plant response rating, Morningglory (morningglory; 62 g ai/ha, 13 to 15 days): 95; Morningglory plant response rating (morningglory; [9]): 100; Blackgrass plant response rating (blackgrass; [8]): 70; Plant response rating, Blackgrass (blackgrass; 62 g ai/ha, 13 to 15 days): 100; Blackgrass plant response rating (blackgrass; [9]): 100
CCOc1cc(C(=O)NC2CC2)nn1Cc1ccnc(OC(F)F)c1 [Compound 133]	90	100	40	100	100	100	100	98	40	100	100	20	95	35	60	90	100	100	75	95	Pigweed plant response rating (pigweed [4]; [12]): 75; Plant response rating, Pigweed (pigweed [4]; 125 g ai/ha, 13 to 15 days): 100; Johnsongrass plant response rating (johnsongrass; [12]): 85; Plant response rating, Johnsongrass (johnsongrass; 125 g ai/ha, 13 to 15 days): 90; Crabgrass, Large plant response rating (crabgrass, large; [12]): 100; Plant response rating, Crabgrass, Large (crabgrass, large; 125 g ai/ha, 13 to 15 days): 100; Ryegrass, Italian plant response rating (ryegrass, Italian; [12]): 85; Plant response rating, Ryegrass, Italian (ryegrass, Italian; 125 g ai/ha, 13 to 15 days): 90; Corn plant response rating (corn; [13]): 80; Barnyardgrass plant response rating (barnyardgrass [5]; [13]): 100; Foxtail, Giant plant response rating (foxtail, giant; [13]): 100; Morningglory plant response rating (morningglory; [12]): 100; Plant response rating, Morningglory (morningglory; 125 g ai/ha, 13 to 15 days): 100; Blackgrass plant response rating (blackgrass; [8]): 85; Blackgrass plant response rating (blackgrass; [12]): 90; Plant response rating, Blackgrass (blackgrass; 125 g ai/ha, 13 to 15 days): 90
